Data: paper PMC6037779, “Repurposing drugs to target the malaria parasite unfolding protein response” (Scientific Reports, 2018)

Experiments:
[1] = target: T1, PfGRP78-NBD mut (Y39F) (Plasmodium falciparum, UniProt Q05866, Y39F); experiment: SPR (Biacore) binding to PfGRP78-NBD Y39F mutant; settings: ± standard error, 25 °C
T1 construct: His-tag (pET28-MHL, TEV site) (N, cleaved yes); made in house; host or cells: E. coli BL21(DE3)
Method: To quantify the binding affinities of PfGRP78-NBD for the selected compounds, dissociation constants (Kd) were determined by surface plasmon resonance (SPR). […] Purified PfGRP78-FL, PfGRP78-NBD wild-type and mutant, and human GRP78-NBD were immobilized on a CM5 sensorchip using NHS/EDC coupling following the manufacturer protocol to a level of <10,000 RUs, a reference surfaces without immobilized proteins served as a control for nonspecific binding and refractive index changes. Seven different concentrations of the ligands between 0.4 nM to 1 mM, were injected in triplicate over the sensor chip at 30 µL/min in random order. The running buffer was 10 mM HEPES, pH 7.4, 150 mM NaCl, 0.005% P20, 1% DMSO and 2 mM MgCl2. Buffer only injections were used as blanks. The Biacore responses recorded during the 30 seconds of the injection were used to estimate the association constant (kon) and the 300 seconds after the injection were used to estimate the dissociation constant (koff). All dissociation and kinetic constants were estimated using double subtracted sensorgrams[40] using BiaEvaluation Software (GE Healthcare). All the reported parasite dissociation constants (Kd) were estimated with affinity analysis, and all the reported human Kds were calculated from kinetic constants.

[2] = test system: Plasmodium falciparum 3D7; experiment: In vitro growth inhibition assay (SYBR Green I), strain 3D7; type: cell-based; settings: Plasmodium falciparum, 3D7; chloroquine-sensitive strain; 72 hours; average of three ± SD; read-out: EC50, growth inhibition, P. falciparum 3D7
Method: A major goal of our study was to evaluate the drug target potential of P. falciparum GRP78, thus we evaluated the effect of the chaperone inhibition on the malaria parasite. Our approach took advantage of several GRP78 inhibitors (Fig. 3a) previously characterized against human cancer cell lines, which were commercially available[20],[24]–[27]. These compounds were tested against two different parasite strains with opposite sensitivity towards the antimalarial drug chloroquine, 3D7 (sensitive) and W2 (resistant). […] A synchronized P. falciparum culture, with over 80% ring forms, was used in the growth inhibition assay. Each strain was assayed at 0.5% parasitaemia and 1.5% hematocrit. A 190 µL aliquot of parasite culture was dispensed per well to microplates that were pre-dispensed with the compounds at various dilutions. […] Dilutions of GRP78 inhibitors and DHA were prepared in water with a final concentration of DMSO below 0.05% (v/v). […] After incubation, the plates were subject to a freeze-thaw cycle (−80 °C) and the parasite growth was quantified by the SYBR Green I method as previously described. Briefly, 100 µl of homogenized parasite culture was transferred into 96-well black plates. 100 µl of SYBR Green lysis buffer (2x SYBR Green I, 100 mM Tris-HCl pH 7.5, 10 mM EDTA, 0.016% Saponin and 1.6% Triton X-100) were added to each well. The plates were incubated at room temperature in darkness for 1 hour.
Growth inhibition experiments were conducted at least three times per compound. […] The statistical analysis was performed with the software Prism 7 (GraphPad Software, San Diego, CA).

[3] = target: T2, PfGRP78 (Plasmodium falciparum, UniProt Q05866); experiment: PfGRP78 protein levels by immuno-blot after exposure of P. falciparum W2 culture; type: cell-based
T2 construct: endogenous in cells; host or cells: P. falciparum W2 culture in human red blood cells
T2 sequence (Q05866 25-652): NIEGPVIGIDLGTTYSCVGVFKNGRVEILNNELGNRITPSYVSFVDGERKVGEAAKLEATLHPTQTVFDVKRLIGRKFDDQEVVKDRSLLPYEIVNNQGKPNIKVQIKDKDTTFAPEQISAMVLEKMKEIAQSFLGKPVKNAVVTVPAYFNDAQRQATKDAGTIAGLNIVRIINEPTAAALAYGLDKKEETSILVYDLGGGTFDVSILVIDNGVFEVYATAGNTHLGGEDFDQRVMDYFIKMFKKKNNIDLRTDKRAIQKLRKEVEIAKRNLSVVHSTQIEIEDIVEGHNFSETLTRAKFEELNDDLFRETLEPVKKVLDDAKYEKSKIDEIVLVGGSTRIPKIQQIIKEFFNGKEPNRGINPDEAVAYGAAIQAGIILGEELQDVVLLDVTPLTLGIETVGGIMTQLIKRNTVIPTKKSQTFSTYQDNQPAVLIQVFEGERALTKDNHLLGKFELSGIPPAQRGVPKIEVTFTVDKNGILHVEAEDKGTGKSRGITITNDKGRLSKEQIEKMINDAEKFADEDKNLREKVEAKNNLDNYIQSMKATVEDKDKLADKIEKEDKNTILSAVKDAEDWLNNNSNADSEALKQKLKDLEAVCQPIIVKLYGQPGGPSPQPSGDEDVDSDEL
Method: Culture aliquots were taken at several time points and the PfGRP78 levels of were evaluated by immuno-blots (Fig. 4). […] Thus, providing further support to the notion that Apoptozole antiplasmodial activity is mediated by its effect on PfGRP78.
A 55 ml suspension of ring-stage P. falciparum W2 parasites at 1.5% parasitaemia and 1.5% of hematocrit were split into 11 culture dishes of 5 ml each. One culture plate was served as a starting point (0 h) and of the remaining ten culture plates, half were exposed to 45 µM Apoptozole and half to DMSO 0.09% for 6 h. After 6 h the Apoptozole or DMSO were removed by washing the parasite culture with complete media twice. Culture dishes contained control (DMSO) and Apoptozole treated parasites were incubated at 37 °C in 5% O2 and 5% CO2 atmosphere throughout the duration of the experiment. One of each control and treated group were harvest at times 1, 3, 6, 24 and 48 hours. Samples were processed by harvesting the red blood cell using centrifugation 5 min at 5000 g and washed twice with PBS 1 × 5000 g for 1 min at 4 °C. The pellet was resuspended in 1 ml of 0.02% saponin-PBS solution (Sigma, Aldrich) and centrifuged 10 min 11000 g at 4 °C. The parasite pellet was washed twice with PBS and resuspended in 100 µl PBS. A 30 µl sample was mixed with 30 µl of Laemlii lysis buffer (BioRad) and 3 µl 14.1 M 2-mercaptoethanol (BioRad) and boiled for 10 min. […]

T1 sequence (Q05866 26-404 Y39F): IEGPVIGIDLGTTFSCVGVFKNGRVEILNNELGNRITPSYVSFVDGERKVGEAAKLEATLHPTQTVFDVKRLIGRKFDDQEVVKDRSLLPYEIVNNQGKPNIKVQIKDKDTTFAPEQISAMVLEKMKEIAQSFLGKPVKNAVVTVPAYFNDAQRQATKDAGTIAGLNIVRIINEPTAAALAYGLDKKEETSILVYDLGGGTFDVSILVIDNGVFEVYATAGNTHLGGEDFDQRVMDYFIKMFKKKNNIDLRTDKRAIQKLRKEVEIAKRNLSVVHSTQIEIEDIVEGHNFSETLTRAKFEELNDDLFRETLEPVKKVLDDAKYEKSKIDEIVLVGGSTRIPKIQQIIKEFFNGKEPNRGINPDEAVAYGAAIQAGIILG

COc1ccc(-c2nc(-c3cc(C(F)(F)F)cc(C(F)(F)F)c3)n(Cc3ccc(C(N)=O)cc3)c2-c2ccc(OC)cc2)cc1 [Apoptozole]
affinity constant (Kd) determined by SPR, PfGRP78-NBD mut [1]: N.B. | EC50 [2]: 6.8 ± 1.4 µM | PfGRP78 levels, first 6 hours ([3]; 45 µM (10xEC50) for 6 h): did not changed | PfGRP78 levels, 24 and 48 h time points ([3]; 45 µM (10xEC50) for 6 h then washed): clear reduction
